Laboratory results published in PMC9656801, “Synthesis of Cyclotetrapeptides Analogues to Natural Products as Herbicides” (Molecules, 2022).
Like-named read-outs stand apart in the source and are kept apart here. Non-standard residues stand in square brackets, D forms with d. Residues, ends and D or L forms follow the SMILES beside them. NMeF = CN[C@@H](Cc1ccccc1)C(=O)O; dNMeF = CN[C@H](Cc1ccccc1)C(=O)O; NMeA = CN[C@@H](C)C(=O)O; Sar = CNCC(=O)O

How the values were obtained:
[1] = tested on: Lolium multiflorum (Ryegrass) seeds; format: in vivo; settings: agar germination
[2] = tested on: Lolium multiflorum (Ryegrass) seeds; assay: whole plant or invertebrate; format: in vivo; settings: agar germination; for Radicle growth inhibition (%): 67 µg/mL, 20 °C, evaluated after 12 days, three replicates of ten seeds, relative to DMSO negative control
Method: The herbicidal activity of cyclotetrapeptides 16–25, 27 and the linear precursors 4–8, 10, 12–15 were evaluated for their influence on germination, leaf development and radicle length growth of ryegrass seeds at 67 μg/mL using germination in agar methodology. DMSO was used as negative control and the herbicide S-metolachlor as positive control. […] The results were expressed as % of radicle growth inhibition, calculated as the percentage between the treatment with each compound and radicle length growth for the negative control (DMSO), as shown in Figure 3.
The experiments to determine the herbicidal activity of the cyclopeptide compounds were carried out on Lolium multiflorum (Raygrass) plants. Germination, root length and leaf development were evaluated, compared to a control without herbicide, a negative control (100 μL DMSO in 15 mL agar, used as solvent) and an herbicide control (1/8 of the commercial dose of the herbicide S-metolachlor).
Serial experiments were conducted using the Agar germination methodology, where the tested compounds and the respective controls were placed in glass Petri dishes (6 cm diameter) in three replicates per treatment. Ten ryegrass seeds were germinated in a growth chamber (20 °C, day/night temperature). The seeds were previously sterilized by immersing them in 70% alcohol for 10 s. When distributed in the Petri dish on the agar, the seeds were placed in such a way as to ensure that they remained submerged in the solution.
Agar–water solution was prepared at 0.3%, 3 g of agar was placed in 1 liter of deionized water, and the solution was autoclaved at 100 °C for 45 min. Once the agar medium had cooled to approximately 60 °C, the solutions were prepared.
The negative control–DMSO control was prepared by adding 100 μL of DMSO per plate in 15 mL of agar and then the seeds were distributed, as mentioned above. A control without DMSO was also carried out to check that the product was not altering the correct development of the ryegrass seeds. For this test, 15 ml of agar were placed in each Petri dish and, before it solidified, the seeds of the species evaluated were placed on top. The herbicide treatment, positive control–Control S-Metolachlor (960 g/L), was carried out for a conversion of 1/8 of the dose of 1 L/ha of commercial product. For this purpose, a stock solution of S-Metolachlor was prepared by placing 0.28 mL of the herbicide in a volumetric flask and topping up to 1000 mL. A total of 25 mL of this stock solution were taken, placed in a volumetric flask and brought to 200 mL, thus, generating the 1/8x solution of S-Metolachlor. A volume of 3 mL of 1/8x herbicide solution was mixed with 45 mL of the agar solution to bring 16 mL into each Petri dish. This ensured that there was 1 mL of 1/8x S-Metolachlor solution per plate: 0.28 μL of herbicide solution. Seeds were arranged in the same way. Using the same method, the agar media corresponding to each plate (15 mL) was mixed with the cyclopeptides dissolved in 100 μL of DMSO.
Germination, root length and leaf development were evaluated 12 days after preparation. The variables of germinated plants and plants with developed leaves of the total number of plants placed to germinate were analyzed by fitting a generalized linear model, since they presented a binomial distribution.
Glinmix procedure of the SAS statistical package. Based on the model and for the comparison of the treatments with the different controls, the contrasts of interest were carried out. The effect of the treatments on the root length variable was studied by comparing means using a Tukey test (p-value < 0.05) in INFOSTAT.
5. Procedure for evaluation of phytotoxic activity
Experiments for determining the herbicidal activity of cyclopeptide compounds were carried out on Lolium multiflorum (Ray grass) plants. Germination, root length, and leaf development were evaluated compared to a control without herbicide, a negative […]

[3] = amide bond, 12-membered ring
[4] = tested on: HepG2 cells; settings: cited from earlier work
[5] = tested on: Lolium multiflorum (Ryegrass) seeds; settings: 67 μg/mL; cited from earlier work
[6] = tested on: cyanobacteria; settings: cited from earlier work
[7] = 11 µM, 12 days, relative to DMSO control
[8] = 6 µM, 12 days, relative to DMSO control

Compound: CC(C)C[C@H](NC(=O)[C@H](C)N)C(=O)N(C)[C@H](Cc1ccccc1)C(=O)NCC(=O)O [Compound 7, NH2-Ala-Leu-N-Me-D-Phe-Gly-OH] (H-AL[dNMeF]G-OH)
- Radicle growth inhibition (%) [1, 7]: 48%
- Radicle growth inhibition (%) [2]: 94% and greater than 85%

Compound: Cyclo-[N-MeAla-Leu-Phe-Gly]
- ring closure, isolated yield [3]: 48%

Compound: CC(C)C[C@@H]1NC(=O)[C@H](C)N(C)C(=O)CNC(=O)[C@H](Cc2ccccc2)N(C)C1=O [Compound 24, Cyclo-[N-MeAla-Leu-N-MePhe-Gly]] (cyclo([NMeA]L[NMeF]G))
- Radicle growth inhibition (%) ([1]; 10 µM, 12 days, relative to DMSO control): 62%
- Radicle growth inhibition (%) [2]: 81%

Compound: CC(C)C[C@H](NC(=O)[C@H](C)N)C(=O)N[C@@H](Cc1ccccc1)C(=O)N(C)CC(=O)O [Compound 6, NH2-Ala-Leu-Phe-NMeGly-OH] (H-ALF[Sar]-OH)
- Radicle growth inhibition (%) [2]: 92% and greater than 85%

Compound: CCc1cccc(C)c1N(C(=O)CCl)[C@@H](C)COC [S-metolachlor, reference compound]
- inhibition at 2.1 µg/mL ([2]; Lolium multiflorum, 288 h, positive control at 2.1 µg/mL (1/8 of the commercial dose), 12 days, read-out: Radicle growth inhibition (%)): 100%

Compound: Cyclo-[N-MeAla-Leu-D-Phe-Gly] (head to tail) [Compound 20]
- Radicle growth inhibition (%) [1, 8]: 32%
- Radicle growth inhibition (%) [2]: 74%

Compound: CC(C)C[C@@H]1NC(=O)[C@H](C)NC(=O)CN(C)C(=O)[C@@H](Cc2ccccc2)NC1=O [Cyclo [Ala-Leu-D-Phe-N-MeGly]]
- ring closure, isolated yield ([3]; from H-Ala-Leu-dPhe-MeGly-OH): 76%

Compound: CC(C)C[C@@H]1NC(=O)[C@H](C)NC(=O)CNC(=O)[C@@H](Cc2ccccc2)N(C)C1=O [Cyclo-[Ala-Leu-N-Me-D-Phe-Gly]]
- ring closure, isolated yield ([3]; from H-Ala-Leu-dMePhe-Gly-OH): 66%

Compound: Cyclo-[N-MeAla-Leu-Phe-Gly] (head to tail) [Compound 17]
- Radicle growth inhibition (%) [1, 8]: 10%

Compound: Cyclo-[N-MeAla-Leu-D-Phe-Gly]
- ring closure, isolated yield [3]: 67%

Compound: CN[C@H](Cc1ccccc1)C(=O)N[C@@H](C)C(=O)N[C@@H](Cc1ccccc1)C(=O)N(C)CC(=O)O [Compound 14, N-Me-D-Phe-Ala-Phe-N-MeGly-OH] (H-[dNMeF]AF[Sar]-OH)
- Radicle growth inhibition (%) ([1]; 67 µM as printed): 53%

Compound: C[C@H]1C(=O)N[C@@H](Cc2ccccc2)C(=O)N(C)[C@@H](Cc2ccccc2)C(=O)NCC(=O)N1C [Compound 25, Cyclo-[N-MeAla-Phe-N-MePhe-Gly]] (cyclo([NMeA]F[NMeF]G))
- Radicle growth inhibition (%) ([1]; 4 µM, 12 days, relative to DMSO control): 41%
- Radicle growth inhibition (%) [2]: 96% and greater than 85%

Compound: CC(C)C[C@@H]1NC(=O)[C@H](C)NC(=O)CN(C)C(=O)[C@H](Cc2ccccc2)N(C)C1=O [Compound 22, Cyclo-[Ala-Leu-N-MePhe-N-MeGly]] (cyclo(AL[NMeF][Sar]))
- Radicle growth inhibition (%) [2]: 66%

Compound: Cyclo-[N-Me-D-Phe-Ala-Phe-N-MeGly]
- ring closure, isolated yield [3]: 17%

Compound: Cyclo-[Ala-Leu-N-Me-D-Phe-Gly] (head to tail) [Compound 19]
- Radicle growth inhibition (%) ([1]; 9 µM, 12 days, relative to DMSO control): 53%
- Radicle growth inhibition (%) [2]: 87% and greater than 85%

Compound: CC(C)C[C@@H]1NC(=O)[C@H](C)N(C)C(=O)CN(C)C(=O)[C@H](Cc2ccccc2)NC1=O [Cyclo-[N-MeAla-Leu-Phe-N-MeGly]]
- ring closure, isolated yield ([3]; from H-MeAla-Leu-Phe-MeGly-OH): 38%

Compound: CC(C)C[C@@H]1NC(=O)[C@H](C)N(C)C(=O)CN(C)C(=O)[C@H](Cc2ccccc2)NC1=O [Compound 23, Cyclo-[N-MeAla-Leu-Phe-N-MeGly]] (cyclo([NMeA]LF[Sar]))
- Radicle growth inhibition (%) [2]: 16%

Compound: Cyclo-[N-MeAla-Phe-N-MePhe-Gly]
- ring closure, isolated yield [3]: 86%

Compound: CC(C)C[C@@H]1NC(=O)[C@H](C)NC(=O)CNC(=O)[C@@H](Cc2ccccc2)NC1=O [Cyclo-[Ala-Leu-D-Phe-Gly]]
- ring closure, isolated yield ([3]; from H-Ala-Leu-dPhe-Gly-OH): 5%

Compound: Cyclo-[Ala-Leu-D-Phe-Gly] (head to tail) [Compound 16]
- Radicle growth inhibition (%) [2]: inactive

Compound: CC(C)C[C@H](NC(=O)[C@H](C)N)C(=O)N(C)[C@@H](Cc1ccccc1)C(=O)N(C)CC(=O)O [Compound 10, NH2-Ala-Leu-N-MePhe-N-MeGly-OH] (H-AL[NMeF][Sar]-OH)
- Radicle growth inhibition (%) [1, 7]: 15%
- Radicle growth inhibition (%) [2]: greater than 85%

Compound: CC(C)C[C@@H]1NC(=O)[C@H](C)NC(=O)CN(C)C(=O)[C@H](Cc2ccccc2)N(C)C1=O [Cyclo-[Ala-Leu-N-MePhe-N-MeGly]]
- ring closure, isolated yield ([3]; from H-Ala-Leu-MePhe-MeGly-OH): 33%

Compound: CC(C)C[C@@H]1NC(=O)[C@H](C)NC(=O)CN(C)C(=O)[C@H](Cc2ccccc2)NC1=O [Cyclo-[Ala-Leu-Phe-N-MeGly]]
- ring closure, isolated yield ([3]; from H-Ala-Leu-Phe-MeGly-OH): 40%

Compound: Cyclo-[N-MeAla-Leu-N-MePhe-Gly]
- ring closure, isolated yield [3]: 47%

Compound: C[C@@H]1NC(=O)[C@@H](Cc2ccccc2)N(C)C(=O)CN(C)C(=O)[C@H](Cc2ccccc2)NC1=O [Compound 26, Cyclo-[N-Me-D-Phe-Ala-Phe-N-MeGly]] (cyclo([dNMeF]AF[Sar]))
- Radicle growth inhibition (%) ([1]; 7 µM, 12 days, relative to DMSO control): 45%
- Radicle growth inhibition (%) ([1]; 45 µg/mL, 12 days, relative to DMSO control): 67%

Compound: versicotide D
- cytotoxicity on HepG2 cells [4]: low cytotoxicity
- radicle growth inhibition [5]: 74%
- inhibition of cyanobacteria population [6]: ability to inhibit cyanobacteria population

Compound: Cyclo-[Phe-N-MeGly-Cys(Bn)-N-MeGly]
- ring closure, isolated yield [3]: 54%

Compound: CN[C@@H](C)C(=O)N[C@@H](Cc1ccccc1)C(=O)N(C)[C@@H](Cc1ccccc1)C(=O)NCC(=O)O [Compound 13, N-MeAla-Phe-N-MePhe-Gly-OH] (H-[NMeA]F[NMeF]G-OH)
- Radicle growth inhibition (%) ([1]; 5 µM, 12 days, relative to DMSO control): 38%
- Radicle growth inhibition (%) [2]: greater than 85%
